According to patent US20210347727A1 (BLADE THERAPEUTICS, INC., priority 2017, published 2021):

Experiments:
[1] = system: calpain activity in SH-SY5Y cells; experiment: SH-SY5Y cellular calpain activity, Suc-LLVY-AMC fluorescence assay; type: cell-based; settings: Suc-LLVY-AMC substrate
How it was run: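 SH-SY5Y cells (1% serum, seeded overnight at 37 C) pre-incubated 30 min with serially diluted compound, then given 100 uM cell-permeable Suc-LLVY-AMC. AMC fluorescence followed continuously on FLIPR; slopes taken as calpain activity, and IC50 from 4-parameter logistic fit of slope versus log concentration.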

Human Calpain 1/NS1 = molecular target: T1, Human Calpain 1/NS1 (Homo sapiens, UniProt P07384); experiment: Biochemical inhibition of calpain 1, continuous fluorescence (FRET substrate) assay; settings: mean; read-out: Human Calpain 1/NS1 IC50 (nM)_MEAN
T1 sequence (P07384 1-714): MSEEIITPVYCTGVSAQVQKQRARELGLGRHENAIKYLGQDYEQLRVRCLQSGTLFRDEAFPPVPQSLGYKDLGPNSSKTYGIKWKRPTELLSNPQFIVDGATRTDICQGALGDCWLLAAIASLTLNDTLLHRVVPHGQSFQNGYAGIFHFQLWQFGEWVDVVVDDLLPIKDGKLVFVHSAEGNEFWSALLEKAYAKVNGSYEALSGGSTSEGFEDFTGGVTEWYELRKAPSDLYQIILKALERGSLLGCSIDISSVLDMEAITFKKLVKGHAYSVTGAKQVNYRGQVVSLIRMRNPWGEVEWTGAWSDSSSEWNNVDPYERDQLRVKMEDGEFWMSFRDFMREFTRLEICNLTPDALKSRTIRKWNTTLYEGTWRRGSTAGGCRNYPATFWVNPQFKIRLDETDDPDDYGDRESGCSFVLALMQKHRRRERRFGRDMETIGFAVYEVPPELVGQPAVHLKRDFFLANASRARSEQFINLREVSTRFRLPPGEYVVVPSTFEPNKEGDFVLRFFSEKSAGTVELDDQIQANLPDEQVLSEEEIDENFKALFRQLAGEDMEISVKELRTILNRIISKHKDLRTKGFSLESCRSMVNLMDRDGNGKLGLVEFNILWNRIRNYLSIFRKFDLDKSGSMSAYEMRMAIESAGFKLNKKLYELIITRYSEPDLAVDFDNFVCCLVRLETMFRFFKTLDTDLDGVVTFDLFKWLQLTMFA
T1 sequence (P04632 1-268 partner): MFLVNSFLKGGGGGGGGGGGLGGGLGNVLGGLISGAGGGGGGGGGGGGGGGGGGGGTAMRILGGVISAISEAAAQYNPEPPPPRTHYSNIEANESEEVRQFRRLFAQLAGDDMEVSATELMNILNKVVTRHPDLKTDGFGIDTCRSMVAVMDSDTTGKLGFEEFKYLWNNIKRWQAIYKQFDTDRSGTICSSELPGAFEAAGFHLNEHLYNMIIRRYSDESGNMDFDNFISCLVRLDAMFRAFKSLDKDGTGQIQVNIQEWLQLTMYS
How it was run: (§1)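 Calpains preincubated with inhibitor at 25 °C in 50 mM Tris pH 7.5, 100 mM NaCl, 1 mM DTT; reaction started with 5-FAM/QXL520 FRET peptide plus CaCl2 for activation. Fluorescence (ex 490/em 520 nm) followed 10 min; rates from 1–5 min slopes, IC50 by 4-parameter logistic fit.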

[2] = system: calpain activity in SH-SY5Y cells (Spectrin); experiment: SH-SY5Y Spectrin cellular calpain inhibition; type: cell-based
Human Calpain 9/NS1 = molecular target: T2, Human Calpain 9/NS1 (Homo sapiens, UniProt O14815); experiment: Biochemical inhibition of calpain 9, continuous fluorescence (FRET substrate) assay; settings: mean; read-out: Human Calpain 9/NS1 IC50 (nM)_MEAN
T2 sequence (O14815 1-690): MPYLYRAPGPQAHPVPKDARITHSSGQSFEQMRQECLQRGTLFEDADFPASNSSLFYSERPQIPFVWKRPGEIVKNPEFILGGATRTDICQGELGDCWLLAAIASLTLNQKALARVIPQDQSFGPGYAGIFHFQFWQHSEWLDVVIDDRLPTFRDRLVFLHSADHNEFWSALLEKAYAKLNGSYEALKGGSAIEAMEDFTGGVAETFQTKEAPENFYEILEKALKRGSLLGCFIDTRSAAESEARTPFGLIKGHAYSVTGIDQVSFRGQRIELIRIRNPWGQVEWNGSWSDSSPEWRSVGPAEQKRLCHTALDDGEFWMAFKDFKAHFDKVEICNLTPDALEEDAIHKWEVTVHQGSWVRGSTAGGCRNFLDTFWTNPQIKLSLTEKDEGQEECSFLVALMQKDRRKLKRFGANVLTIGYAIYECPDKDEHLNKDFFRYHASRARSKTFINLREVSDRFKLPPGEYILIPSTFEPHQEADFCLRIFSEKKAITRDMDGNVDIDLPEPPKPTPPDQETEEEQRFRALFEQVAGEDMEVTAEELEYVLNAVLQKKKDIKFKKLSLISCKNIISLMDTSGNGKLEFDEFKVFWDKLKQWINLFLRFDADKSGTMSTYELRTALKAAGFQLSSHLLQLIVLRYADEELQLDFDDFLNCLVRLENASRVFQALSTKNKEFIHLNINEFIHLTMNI
T2 sequence (P04632 1-268 partner): T1 sequence (P04632 1-268 partner)
How it was run: as §1

Human Calpain 2/NS1 = molecular target: T3, Human Calpain 2/NS1 (Homo sapiens, UniProt P17655); experiment: Biochemical inhibition of calpain 2, continuous fluorescence (FRET substrate) assay; settings: mean; read-out: Human Calpain 2/NS1 1C50 [sic] (nM)_MEAN
T3 sequence (P17655 1-700): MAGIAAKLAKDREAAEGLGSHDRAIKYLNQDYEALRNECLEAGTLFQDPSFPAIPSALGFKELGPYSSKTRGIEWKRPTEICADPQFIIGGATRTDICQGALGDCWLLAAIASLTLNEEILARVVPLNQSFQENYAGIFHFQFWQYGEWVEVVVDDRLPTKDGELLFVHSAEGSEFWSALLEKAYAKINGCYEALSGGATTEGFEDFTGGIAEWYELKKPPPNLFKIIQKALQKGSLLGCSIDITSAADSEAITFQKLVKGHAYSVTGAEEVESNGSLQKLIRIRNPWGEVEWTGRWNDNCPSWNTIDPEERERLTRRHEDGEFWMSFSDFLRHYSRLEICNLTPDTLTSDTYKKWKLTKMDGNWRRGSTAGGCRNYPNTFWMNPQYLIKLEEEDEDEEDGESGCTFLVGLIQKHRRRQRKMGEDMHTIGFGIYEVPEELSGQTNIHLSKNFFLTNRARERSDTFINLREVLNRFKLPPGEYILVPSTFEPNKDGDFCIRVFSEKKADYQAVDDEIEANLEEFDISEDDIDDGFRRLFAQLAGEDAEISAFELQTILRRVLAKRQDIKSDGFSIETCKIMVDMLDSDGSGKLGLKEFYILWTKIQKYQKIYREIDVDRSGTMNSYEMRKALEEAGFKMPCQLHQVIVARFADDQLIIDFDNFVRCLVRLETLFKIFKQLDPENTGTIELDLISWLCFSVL
T3 sequence (P04632 1-268 partner): T1 sequence (P04632 1-268 partner)
How it was run: as §1

NC(=O)C(=O)[C@H](Cc1ccccc1)NC(=O)c1c(F)cccc1C(F)(F)F [Compound 16, (S)—N-(4-AMINO-3,4-DIOXO-1-PHENYLBUTAIN-2-YL)-2-FLUORO-6-(TRIFLUOROMETHYL)BENZAMIDE]
IC50 [1]: > 25 µM | IC50 (Human Calpain 1/NS1): < 3000 nM | IC50 [2]: 10 to 25 µM | IC50 (Human Calpain 9/NS1): < 3000 nM | IC50 (Human Calpain 2/NS1): < 3000 nM

O=CC(Cc1ccccc1)NC(=O)c1cccc2c1Oc1ccccc1O2 (centres unmarked) [Compound 48]
IC50 [1]: > 25 µM | IC50 (Human Calpain 1/NS1): < 3000 nM | IC50 [2]: > 25 µM | IC50 (Human Calpain 9/NS1): < 3000 nM | IC50 (Human Calpain 2/NS1): < 3000 nM

NC(=O)C(=O)C(Cc1ccccc1)NC(=O)c1cccc2c1oc1ccccc12 (centres unmarked) [Compound 9, N-(4-AMINO-3,4-DIOXO-1-PHENYLBUTAN-2-YL)DIBENZO[b,d]FURAN-4-CARBOXAMIDE]
IC50 [1]: > 25 µM | IC50 (Human Calpain 1/NS1): < 3000 nM | IC50 [2]: > 25 µM | IC50 (Human Calpain 9/NS1): < 3000 nM | IC50 (Human Calpain 2/NS1): < 3000 nM

Cn1c2ccccc2c2c(C(=O)NC(Cc3ccccc3)C(=O)C(N)=O)cccc21 (centres unmarked) [Compound 11, N-(4-AMINO-3,4-DIOXO-1-PHENYLBUTAN-2-YL)-9-METHYL-9H-CARBAZOLE-4-CARBOXAMIDE]
IC50 [1]: < 10 µM | IC50 (Human Calpain 1/NS1): < 3000 nM | IC50 [2]: 10 to 25 µM | IC50 (Human Calpain 9/NS1): < 3000 nM | IC50 (Human Calpain 2/NS1): < 3000 nM
